Assay results as given in ChEMBL document CHEMBL1142609, “An apigenin-derived xanthine oxidase inhibitor from Palhinhaea cernua” (J Nat Prod, 2006).

How the values were obtained:
[1] = target: T1, Xanthine dehydrogenase/oxidase (Homo sapiens, UniProt P47989); test: Inhibition of xanthine oxidase
[2] = target: T1, Xanthine dehydrogenase/oxidase; test: Inhibition of xanthine oxidase by noncompetitive Lineweaver-Burke plot; conditions: read-out: Kinact
[3] = target: T1, Xanthine dehydrogenase/oxidase; test: Inhibition of xanthine oxidase by competitive Lineweaver-Burke plot

T1 sequence (P47989 whole entry): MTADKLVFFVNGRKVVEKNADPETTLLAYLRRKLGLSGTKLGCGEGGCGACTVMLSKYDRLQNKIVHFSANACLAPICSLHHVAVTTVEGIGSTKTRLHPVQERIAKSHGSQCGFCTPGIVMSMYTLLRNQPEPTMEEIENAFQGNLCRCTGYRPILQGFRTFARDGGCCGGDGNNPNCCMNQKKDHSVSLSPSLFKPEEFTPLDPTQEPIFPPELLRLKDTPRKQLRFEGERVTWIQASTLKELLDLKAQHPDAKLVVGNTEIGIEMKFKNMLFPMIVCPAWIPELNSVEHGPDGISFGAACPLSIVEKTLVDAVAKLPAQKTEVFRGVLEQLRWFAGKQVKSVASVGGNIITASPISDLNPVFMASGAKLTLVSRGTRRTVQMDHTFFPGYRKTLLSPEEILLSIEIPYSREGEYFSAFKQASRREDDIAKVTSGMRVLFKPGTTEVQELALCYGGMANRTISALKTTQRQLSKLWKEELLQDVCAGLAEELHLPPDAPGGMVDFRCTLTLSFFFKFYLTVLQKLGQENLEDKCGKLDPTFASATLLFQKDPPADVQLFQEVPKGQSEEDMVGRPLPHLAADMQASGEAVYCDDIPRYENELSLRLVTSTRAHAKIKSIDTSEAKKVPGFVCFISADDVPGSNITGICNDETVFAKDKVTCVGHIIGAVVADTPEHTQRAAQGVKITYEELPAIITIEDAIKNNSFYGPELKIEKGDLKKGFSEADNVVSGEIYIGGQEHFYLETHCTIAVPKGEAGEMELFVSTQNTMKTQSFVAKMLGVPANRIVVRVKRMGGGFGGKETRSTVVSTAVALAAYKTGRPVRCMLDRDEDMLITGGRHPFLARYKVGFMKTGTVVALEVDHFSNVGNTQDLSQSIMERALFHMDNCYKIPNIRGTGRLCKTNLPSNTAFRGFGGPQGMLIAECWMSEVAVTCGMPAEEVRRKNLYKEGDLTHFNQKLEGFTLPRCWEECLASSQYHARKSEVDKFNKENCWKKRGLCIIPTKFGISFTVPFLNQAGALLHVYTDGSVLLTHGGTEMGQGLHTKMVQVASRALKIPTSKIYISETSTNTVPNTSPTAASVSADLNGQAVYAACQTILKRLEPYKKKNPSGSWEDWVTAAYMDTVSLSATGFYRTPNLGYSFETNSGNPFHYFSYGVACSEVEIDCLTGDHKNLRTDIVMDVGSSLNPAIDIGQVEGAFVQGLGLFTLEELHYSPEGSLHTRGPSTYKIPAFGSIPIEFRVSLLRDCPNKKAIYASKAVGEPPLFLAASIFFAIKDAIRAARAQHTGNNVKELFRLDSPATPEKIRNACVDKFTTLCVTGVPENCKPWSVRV

IC50 [1] | Ki [2] | Ki [3] | Structure (SMILES)
24 µM | 93.7 µM | 14.3 µM | O=C(/C=C/c1ccc(O)cc1)O[C@@H]1[C@@H](Oc2ccc(-c3cc(=O)c4c(O)cc(O)cc4o3)cc2)O[C@@H](CO)[C@H](O)[C@H]1O
> 100 µM | – | – | O=C(/C=C/c1ccc(O)cc1)OC[C@@H]1O[C@H](Oc2ccc(-c3cc(=O)c4c(O)cc(O)cc4o3)cc2)[C@@H](OC(=O)/C=C/c2ccc(O)cc2)[C@H](O)[C@H]1O
> 100 µM | – | – | O=C(/C=C/c1ccc(O)cc1)OC[C@@H]1O[C@H](Oc2ccc(-c3cc(=O)c4c(O)cc(O)cc4o3)cc2)[C@@H](O)[C@H](O)[C@H]1O
